The test system of data set [1] is subcutaneous LS174T tumors (human colorectal adenocarcinoma). Put plainly: Biodistribution, clearance and planar imaging in athymic mice bearing subcutaneous LS174T xenografts. The format is in vivo, athymic NCr-nu/nu mice. The following applies: for clearance from blood and normal tissues: IV administration. The method, then:
The in vivo properties and pharmacology of several compounds of the present invention were initially tested in athymic mice bearing subcutaneous LS174T tumors (human colorectal adenocarcinoma), which have several desirable properties such as rapid growth when implanted subcutaneously (SQ), good vascularization and the availability of considerable historical data for the parent compound IUdR. The clearance rates from blood, tumor, and associated organs were analyzed to determine the structure-pharmacokinetics relationship. The first compounds studied were 6b-fast and 6b-slow. Four-to-six-weeks old female athymic NCr-nu/nu mice (NCI-Frederic, Md., USA) were allowed to acclimate in Applicants' facility after delivery for no less than 5 days. All protocols involving animals were approved by the University of Nebraska Institutional Animal Care and Use Committee. Mice were housed in microisolator cages with free access to sterilized standard rodent diet and water. LS174T cells in 0.1 mL of serum-free medium were implanted SQ at 5×10^6 cells/mouse. One week later identification transponders were implanted, also SQ. Body weights and tumor sizes were monitored twice weekly, and approximately 10 days after the cell implant, mice were randomized for biodistribution studies.
Each of the two isomers, 6b-fast and 6b-slow, was tested independently in separate groups of mice. The comparison to the parent compound, IUdR, was made by co-injecting ^131IUdR with a particular ^125I-labeled diastereomer. Compounds were administered intravenously (IV) via a tail vein.
Biodistribution was conducted at 1 h, 4 h, 24 and 48 h after the administration of radiolabeled compounds (n=6 per time point). The injection doses contained approximately 1 μCi (37 kBq) ^131IUdR and 5 μCi (185 kBq) ^125I-labeled 6b-fast or 6b-slow dissolved in 0.2 mL phosphate buffered saline containing 0.1% bovine serum albumin, pH 7.2 (PBS). All syringes were weighted after loading with the compound solution and immediately after the injection to determine the weight of the injected dose. Triplicate standards of the injected dose were prepared in PBS and counted in a gamma counter just before the beginning of the experiment. The radioactive content of these standards was also determined alongside all tissues after the necropsy to correct the tissue uptake for the decay of the radioisotope. Blood, liver, spleen, heart, lungs, kidneys, brain, tumor and tail were collected during necropsy. Tissues were rinsed in ice-cold saline, patted dry and weighed. The tail was collected to validate the quality of the IV injections.
FIG. 7 presents whole body images for a typical time course distribution (24 h, 48 h, and 72 h) of 6b administered as a diastereomeric mixture in LS174T-bearing athymic mice. The images were acquired 1, 2, and 3 days after the administration of the compound. […] It is also apparent that based on pharmacokinetics, the use of these compounds can be tailored to a specific malignancy and its anatomical location.

In data set [2] the test system is advanced OVCAR-3 tumors. Put plainly: Therapy with fractionated doses in advanced OVCAR-3 tumors. Format: in vivo, athymic NCr-nu/nu mice. Conditions: IP fractionated doses. The method, then: Female athymic NCr-nu/nu mice were received from NCI-Frederic (MD, USA). Identification transponders were implanted SQ in mice acclimated for one week. When mice reached the age of 8-weeks, all mice received IP implant of 5.6×10^8 OVCAR-3 cells/mouse in 0.5 mL media without serum. This cancer cell load is double the size of implant described in Example 6 and allows for a rapid development of the advanced stages of the tumor. One weeks later mice were separated into […] via a lottery as follows: mice in the control group were left untreated; mice the vehicle group received 0.3 mL vehicle (PBS containing 0.5% albumin and 5% DMSO); the remaining mice in groups ×1, ×2, and ×3 received an IP injection of 8b-slow in 0.3 mL vehicle; two weeks later mice in groups ×2 and ×3 received an IP injection of 8b-slow in 0.3 mL vehicle; and four weeks after the first dose mice in group ×3 received an IP injection of 8b-slow in 0.3 mL vehicle. Using the same schedule, mice in the vehicle group were given IP injections of 0.3 mL vehicle. The average total administered doses were as follows: group ×1: 0.5 mCi […]; group ×2: 1 mCi (37 MBq), and group ×3: 1.5 mCi (55.5 MBq). All mice were killed six weeks after the administration of the first dose. […] The data analyses confirmed that the observed differences are statistically significant. […]

The subject of data set [3] is early stage OVCAR-3 tumors. Put plainly: Dose-response therapy in early stage OVCAR-3 tumors. The format is in vivo, athymic NCr-nu/nu mice. The method, then:
Female athymic NCr-nu/nu mice were received from NCI-Frederick (MD, USA) and were allowed to acclimate in Applicants' facilities until the age of 8 weeks. After this period of acclimation, 2.5×10^8 OVCAR-3 cells were implanted into 36 mice. Four days later, each mouse received SQ transponders (micro-identification chips) and mice were divided into three groups at random: control mice receiving sham IP injections of 0.6 mL vehicle (n=12); mice in the high dose group were treated with one IP dose of 0.7 mCi (26 MBq) 8b slow in 0.6 mL vehicle (n=12); and mice the low dose group were treated with one IP dose of 0.29 mCi (10.7 MBq) 8b slow in 0.6 mL vehicle (n=12).
Five weeks after treatment, all mice were sacrificed and full necropsy was performed. A single dose of 8b slow given at the early stages of the disease reduces the tumor burden by […]. The response of solid tumors seems better than the cells in ascites, […] in the weight of the solid tumor deposits (FIG. 17). The uptake and retention of radioactivity was measured in several tissues and in tumor. The radioactivity levels in blood are ˜30 times lower than in the tumor cells in ascites and ˜10 times lower than in the solid tumors.

The subject of data set [4] is U-87 human glioblastoma cells. Briefly: Cell survival of U-87 human glioblastoma cells after treatment. The format is cell-based. Conditions: 24 h exposure, concentration-dependent survival (FIG. 24). The method, then: U-87 MG cell line is an epithelial cell line derived from a grade IV glioblastoma resected from the brain of a patient. U-87 cells were plated in four flasks for each isomer and allowed to attach for 24 h. The compounds 6b fast and 6b slow were added to U-87 cells at […] (37 kBq/mL). Cells were incubated with the radioactive compounds for 24 h and the radioactive medium was removed. Cells were washed twice with fresh, nonradioactive medium and trypsinized. After appropriate dilutions in full growth medium, cells were re-plated in fresh medium (n=4 per compound). After 96 hours in culture, cells were harvested and their numbers counted using a Cellometer® disposable cell counting chamber (Nexcelom Bioscience, Lawrence, Mass.). Four flasks used as controls were sham-treated with a volume of PBS used to dissolve radioactive compounds. The control flasks were processed as described for the radioactive compound-treated cells. […] The surviving fraction is calculated as the ratio of cell number recovered from flasks treated with radioactive compounds to the cell number recovered from the control flasks. Averages and standard deviations are shown. The cell survival was also measured in a 96-well and 6-well formats.
U-87 cells were plated in 6-well plates from suspension. The compounds 6b fast and 6b slow were added with media on day 0. […] The OD was read at 560 nm. […]

In data set [5] the test system is U-87 human glioblastoma cells. Put plainly: DNA uptake and subcellular distribution of radioactivity in U-87 cells. Format: cell-based. The method, then: U-87 cells were plated in T75 flasks and allowed to attach for 24 h. Compounds 6b-fast and 6b slow were added to cells at 1 μCi/mL (37 kBq/mL) and 5 μCi/mL (185 kBq/mL). Cells were incubated with radioactive compounds from 24 h to 120 h. The radioactive medium was removed. Cells were washed twice with fresh, nonradioactive medium. Cells were trypsinized and their numbers and radioactive content determined. A similar study was also conducted in 96- and 24-well formats, which allowed more rapid analyses of several concentrations of 6b. Harvested cells were processed using NE-PER nuclear and cytoplasmic extraction reagents (Thermo Fisher Scientific, Rockford, Ill.). […] U-87 cells plated in T75 flasks and allowed to grow for 24 h. Cells were treated with […] 6b fast and 6b slow for 40 h at which time the radioactive medium was removed and replaced with fresh media. Cells were grown in fresh medium for additional 24 h and 72 h. Cells were trypsinized and DNA was extracted using the Qiagen method (Qiagen Genomic-tip 20/G; Qiagen, Valencia, Calif.).

Data set [6] relates to U-87 human glioblastoma cells. Briefly: Concentration-dependent uptake by U-87 cells. The format is cell-based. The following applies: 40 h exposure, 96-well plates. The method, then:
U-87 cells were plated in 96-well plates and allowed to attach for ˜48 hours. The used medium was replaced with 6b-containing medium and the cells were grown in the presence of radioactivity for 40 h. The radioactive media was removed after 40 h of exposure. Aliquots (0.05 mL) of the radioactive medium were counted in a gamma counter. Cell monolayers were washed with PBS, PBS-methanol (2 min), and fixed in methanol (10 min). Fixed cells were allowed to dry and were stained with 0.25% crystal violet (10 min). To each well 0.1 mL ethanol was added (2 h) followed by 0.1 mL 3.5 mM SDS in water. OD at 560 nm was read. Solubilized cells were transferred into gamma counter tubes to determine their radioactive content. The plate was divided into individual wells and these were also added to the gamma counter tubes. FIG. 27 illustrates the concentration-dependent uptake.

Setting [7] is: five weeks after single IP dose.
Where [8] appears, read: single IP dose, five weeks after treatment.

In the case of `CC(C)(C)c1cc(C(C)(C)C)c2c(c1F)COP(=O)(OC[C@H]1O[C@@H](n3cc([125I])c(=O)[nH]c3=O)C[C@@H]1O)O2` (some centres unmarked) [Compound 8b, 5-[^125I]-Iodo-5′-O-[cyclo-3,5-di-(tert-butyl)-6-fluoroSaligenyl]-2′-deoxyuridine Monophosphate], in data set [1], the “clearance from blood and normal tissues” value is “very favorable blood clearance curve”. In addition, the “major site of normal tissue uptake” value in data set [1] (biodistribution data) was “liver is the major site of the normal tissue uptake”.

Regarding `CC(C)(C)c1cc(C(C)(C)C)c2c(c1F)COP(=O)(OC[C@H]1O[C@@H](n3cc([125I])c(=O)[nH]c3=O)C[C@@H]1O)O2` (some centres unmarked) [8b slow, 5-[^125I]-Iodo-5′-O-[cyclo-3,5-di-(tert-butyl)-6-fluoroSaligenyl]-2′-deoxyuridine Monophosphate], the “clearance from blood and normal tissues” value in data set [1] is “rapid clearance from blood and normal tissues”. In addition, the “relationship between tumor size and total administered doses” value in data set [2] (total 0.5, 1, 1.5 mCi, six weeks after first dose) is given as “unambiguous dose-response relationship”. The “hematological adverse effects (hemoglobin and hematocrit)” value in data set [2] (total 0.5-1.5 mCi) was “do not produce any significant hematological adverse effects”. In data set [3] (setting [7]), the liver uptake is given as less than 0.003 % ID/g; the “radioactivity level in blood, times lower than in the solid tumors” value is on record as roughly 10 times; the “radioactivity level in blood, times lower than in the tumor cells in ascites” value is on record as roughly 30 times. The “adverse effects by hemoglobin and hematocrit levels” value in data set [3] (single IP dose 0.29 or 0.7 mCi) is “not causing noticeable adverse effects”. For the same compound, in data set [3] (setting [8]), the “reduction in the weight of the solid tumor deposits” value is recorded as greater than 300% and the “reduction of tumor burden” value is recorded as greater than 230%.

`O=c1[nH]c(=O)n([C@H]2C[C@H](O)[C@@H](COP3(=O)OCc4ccccc4O3)O2)cc1[125I]` (some centres unmarked) [6b slow, 5-[^125I]-Iodo-5′-O-cycloSaligenyl-2′-deoxyuridine Monophosphate]: in data set [4], the “cytotoxicity to U-87 cells, slow versus fast isomer” value was “more cytotoxic to U-87 cells compared to the 6b fast isomer”. In addition, in data set [5], the “cellular and nuclear uptake, slow versus fast isomer” value is “greater overall cellular and nuclear uptake when compared to 6b fast”. Further, in data set [6], the “uptake by U-87 cells compared to 6b fast” value is on record as “almost a two-fold greater uptake”.

(Values after US20120269725A1, “TARGETED RADIOLABELED COMPOUNDS AND THEIR USE FOR THE TREATMENT AND DIAGNOSIS OF CANCER” (priority 2009, published 2012).)
